US8575116B1, “Polyacetylenic compounds for protecting against pancreatic islet atrophy” (Academia Sinica, priority 2010, dated 2013)

How the values were obtained:
[1] = system: HIT-T15 cells; assay: Insulin secretion of β-cell line with PMA, GF109203X and cytopiloyne (ELISA); format: cell-based, rat; conditions: FIG. 6A
[2] = system: human insulin promoter in HIT-T15 β-cells; assay: Insulin promoter (phINS-Luc) dual luciferase assay in HIT-T15 β-cells; format: cell-based, rat; conditions: FIG. 6C
Experimental: FIGS. 4A-C show an increase in insulin mRNA and protein content by cytopiloyne in pancreatic islet cells. (A) HIT-T15 β-cells transfected with phINS-Luc and pRL-TK plasmids were incubated with vehicle (NS), glimepiride (GLM, 10 μM), high glucose (HG, 16.7 mM) or cytopiloyne at 7, 14 or 28 μM. Ten μg of cell lysates from these cells underwent to dual luciferase assays. […] (C) Rat pancreatic islet cells were treated with vehicle, glucose (3.3 mM (LG) or 16.7 mM (HG)) or cytopiloyne (CP, 7, 14 and 28 μM) in the presence of brefeldin A for 24 h. After anti-insulin antibody staining, these cells underwent FACS analysis. The percentage of insulin-positive β-cells is shown. All the results from 3 independent experiments are expressed as mean±SEM, and P<0.05 was considered to be statistically significant (*).
(A) RIN-M5F cells were grown in medium with 16.7 mM (HG) or 3.3 mM glucose (LG) in the presence of PMA. GF and cytopiloyne. The insulin level of the supernatants was determined using an ELISA kit. (B) RIN-M5F cells were transfected with 5 μg of dominant-negative PKCα or control plasmid grown in medium with 16.7 mM (HG) or 3.3 mM glucose (LG) in the presence of PMA (1 μM), GF109203X (3 μM) or cytopiloyne. The insulin level of the supernatants was determined using an ELISA kit. (C) HIT-T15 cells were transfected with phINS-Luc and pRL-TK plasmids. The cells were grown in medium with 16.7 mM (HG) or 3.3 mM glucose (LG) in the absence or presence of PMA, GF109203X and cytopiloyne. The cell lysates were subjected to dual luciferase assays. (D) HIT-T15 cells were transfected with vehicle or dominant-negative PKCα plasmid together with phINS-Luc and pRL-TK plasmids. The cells were grown in medium with 16.7 mM (HG) or 3.3 mM glucose (LG) in the absence or presence of PMA and cytopiloyne. The cell lysates were subjected to dual luciferase assays.
Plasmids phINS-Luc and pRL-TK contain a human insulin promoter (2347 bp) from phINS-DCR3 vector linked to a firefly luciferase gene and the thymidine kinase promoter linked to Renilla luciferase reporter gene, respectively. Dominant-negative PKCα, phINS-Luc and/or pRL-TK were transfected into HIT-T15 cells with lipofectamine or electroporation.

[3] = system: RIN-m5F cells; assay: DAG and cholesterol generation (3H-myristic acid, TLC) in RIN-m5F cells; format: cell-based, rat; conditions: versus vehicle control, glucose 16.7 mM
Experimental: (§1) FIGS. 5A-D show the effects of cytopiloyne on calcium mobilization, DAG generation and PKCa activation. (A) After Fura 2-AM loading, RIN-m5F cells were stimulated with 16.7 mM glucose (HG) and cytopiloyne at 7, 14 and 28 μM. Level of intracellular calcium, as shown by the 340/380 nm ratio, was detected using a fluorescence spectrophotometer. (B) RIN-m5F cells were pulsed with ^3H-myristic acid (5 Cim1^−1) for 16 hours. After washing, the cells were stimulated with glucose, cytopiloyne, PMA and glimepiride. Total lipids were separated on a silica thin layer plate. DAG and cholesterol were visualized with iodine vapor and identified by their standards. (C) RIN-m5F cells were incubated with vehicle (Mock), cytopiloyne (CP, 3, 7 and 14 μM), PMA (1 μM) and 16.7 mM (HG). Membrane or cytosolic proteins were subjected to Western blot with anti-PKCα and anti-Actin antibodies. (D) RIN-m5F cells were incubated with vehicle (Mock), cytopiloyne (CP 7 μM) and PMA (1 μM). After lysis, total lystaes were subjected to Western blot with anti-PKCα, anti-phospho-PKCα and anti-Actin antibodies.
RIN-m5F cells were incubated with ^3H-myristic acid ([…]) for 16 hours. After washing, the cells were treated with glucose, cytopiloyne, PMA and glimepiride. Total lipids were extracted as previously described. Radioactive DAG was separated on a silica thin layer plate with the first developer of ethylacetate: acetic acid: triethylpentane (9:2:5) and the second developer of hexane: diethylether: methanol: acetic acid (90:20:3:2). The spot of DAG was visualized with iodine vapor and identified by DAG standard.

[4] = system: PKCα; assay: PKCα translocation and phosphorylation (Western blot) in RIN-m5F cells; format: cell-based, rat; conditions: PMA 1 μM, glucose 16.7 mM
Experimental: as §1

[5] = system: STZ-treated C57BL mice; assay: Insulin sensitizer test: oral dose before insulin injection in STZ-treated C57BL mice; format: in vivo, mouse; conditions: cytopiloyne 0.5 and 2.5, glimepiride 2.5, metformin 60 mgkg^−1 oral; insulin 2.5 IUkg^−1
Experimental: (§2) FIGS. 3A-C show cytopiloyne-mediated insulin release depends on pancreatic islet cells. (A) Rat pancreatic islet cells were incubated with glucose-free KRB buffer containing vehicle or cytopiloyne at 1.5, 3, 7, 14, 28 and 42 μM (FIG. 3A-i). Similarly, rat pancreatic islet cells were incubated with KRB buffer containing vehicle, glimepiride (GLM, 10 μM) or cytopiloyne at 1.5, 3, 7, 14, 28 and 42 μM in the presence of 3.3 mM glucose (LG, FIG. 3A-ii) or 16.7 mM glucose (HG, FIG. 3A-iii). The insulin levels were determined using an insulin ELISA kit. The data presented as mean±SEM of 3 independent experiments. (B) Fed C57BL mice, which had already received an injection of STZ, were administered with an oral dose of vehicle, cytopiloyne (CP, 0.1, 0.5 and 2.5 mgkg^−1), and an intraperitoneal injection of insulin (Ins, 2.5 IUkg^−1). Blood sugar levels in the STZ-treated mice were determined using a glucometer. (C) C57BL mice, which had already received STZ, were orally administered with a single dose of vehicle, cytopiloyne (CP, 0.5 and 2.5 mgkg^−1), glimepiride (GLM, 2.5 mgkg^−1), or metformin (60 mgkg^−1), followed by an intraperitoneal injection with insulin (Ins). Blood sugar levels in the STZ-treated mice were determined using a glucometer. All the results from 3 independent experiments are expressed as mean±SEM, and P<0.05 was considered to be statistically significant (*). The number of mice (n) is indicated in parentheses.
To deplete pancreatic β-cells in mice, 6-week-old C57BL females (NLAC, Taipei, Taiwan) were intraperitoneally injected with STZ at 200 mgkg^−1. STZ-treated females with postprandial blood sugar over 500 mgdl^−1 were grouped. […] Blood glucose levels were monitored for 4 h. To distinguish sensitizer activity from releaser activity of cytopiloyne, STZ-treated C57BL mice were tube-fed with vehicle, glimepiride (2.5 mgkg^−1), metformin (60 mgkg^−1) or cytopiloyne (0.5 and 2.5 mgkg^−1) 1 h before insulin injection (2.5 IUkg^−1). Blood glucose levels in the mice were monitored from 0 to 4 h after insulin injection.

[6] = system: adipocyte protein 2 (aP2); assay: Real-time RT-PCR of aP2 mRNA relative to GAPDH in 3T3-L1 cells; format: cell-based, mouse; conditions: mouse, 8 days, 1 μM
[7] = system: adiponectin; assay: Real-time RT-PCR of adiponectin mRNA relative to GAPDH in 3T3-L1 cells; format: cell-based, mouse; conditions: mouse, 8 days, 1 μM
[8] = system: β-cell line; assay: Insulin secretion in β-cell line (unpublished data); format: cell-based
[9] = system: STZ-treated C57BL mice; assay: Blood glucose in STZ-treated (β-cell-depleted) C57BL mice; format: in vivo, mouse; conditions: cytopiloyne oral 0.1, 0.5 and 2.5 mgkg^−1; insulin i.p. 2.5 IUkg^−1
Experimental: as §2, with “(C) C57BL mice, which had already received STZ, were orally administered with a single dose of vehicle, cytopiloyne (CP, 0.5 and 2.5 mgkg^−1), glimepiride (GLM, 2.5 mgkg^−1), or metformin (60 mgkg^−1), followed by an intraperitoneal injection with insulin (Ins).” left out, “The number of mice (n) is indicated in parentheses.” left out
To deplete pancreatic β-cells in mice, 6-week-old C57BL females (NLAC, Taipei, Taiwan) were intraperitoneally injected with STZ at 200 mgkg^−1. […] Blood glucose levels were monitored for 4 h. […] Blood glucose levels in the mice were monitored from 0 to 4 h after insulin injection.

## CN(C)CCCn1cc(C2=C(c3c[nH]c4ccccc34)C(=O)NC2=O)c2ccccc21 [GF109203X]
[1]; with cytopiloyne or PMA
  effect of PKC inhibitor on induced insulin secretion: inhibited cytopiloyne- and PMA-induced insulin secretion
[2]; with cytopiloyne, glucose or PMA
  effect of PKC inhibitor on mediated insulin transcription: completely abolished cytopiloyne-, glucose- and PMA-mediated insulin transcription

## CCCCCCCCCCCCCC(=O)O[C@@H]1[C@@H](C)[C@@]2(O)[C@@H](C=C(CO)C[C@]3(O)C(=O)C(C)=C[C@@H]23)[C@@H]2C(C)(C)[C@]12OC(C)=O [PMA, phorbol 12-myristate 13-acetate, reference compound]
[3]
  level of DAG: significantly increased the level of DAG
[1]; glucose 16.7 mM
  insulin secretion in β-cell line: stimulated insulin secretion
[4]; cytopiloyne 7 μM
  phosphorylation of PKCα: increased phosphorylation of PKCα
[4]; cytopiloyne 3, 7 and 14 μM
  translocation of PKCα from cytoplasm to membrane: increased the translocation of PKCα from cytoplasm to membrane
[2]; glucose 16.7 mM
  insulin transcription in HIT-T15 cells: stimulated insulin transcription

## CN(C)C(=N)N=C(N)N [metformin]
[5]
  blood sugar lowering when dosed 60 min before insulin injection: significantly reduced blood glucose levels

## CN(CCOc1ccc(CC2SC(=O)NC2=O)cc1)c1ccccn1 (stereo not shown) [rosiglitazone]
[6]
  aP2 expression, times of the control: 11 times
[7]
  adiponectin expression level, times control levels: 21 times

## cytopiloyne aglycone
[8]
  induction of insulin secretion relative to cytopiloyne: less effective than cytopiloyne in inducing insulin secretion
  insulin secretion in β-cell line: did stimulate insulin secretion in β-cell line to some extent

## insulin: Insulin purchased from Novo Nordisk, injected intraperitoneally
[9]
  reduction of hyperglycemia / blood glucose in β-cell-depleted mice: still diminished blood glucose levels
